This note sets out measurements from the supplement of paper PMC9103864.

Assay [1] deals with BMSC (primary human bone marrow mesenchymal stromal cells). The assay is described as follows: drug sensitivity score (DSS); higher = more sensitive.
Assay [2] has the same test system. The assay can be described thus: absolute EC50 for viability; higher = less sensitive.

Molecule `COCCNCc1ccc(-c2cc3nccc(Oc4ccc(NC(=O)C5(C(=O)Nc6ccc(F)cc6)CC5)cc4F)c3s2)nc1` [Sitravatinib] returned a drug sensitivity score in assay [1] of 7.7. Moreover, in assay [2], the “absolute EC50 for viability” value was above 2.5 µM.

`NS(=O)(=O)NCCNc1nonc1/C(=N/O)Nc1ccc(F)c(Br)c1` [Epacadostat]: the drug sensitivity score in assay [1] worked out at 0. Also, the “absolute EC50 for viability” value in assay [2] is above 10 µM.

For the molecule `Cn1ncnc1[C@H]1c2n[nH]c(=O)c3cc(F)cc(c23)N[C@@H]1c1ccc(F)cc1` [Talazoparib], the drug sensitivity score in assay [1] turned out to be 1. Besides, in assay [2], the “absolute EC50 for viability” value is above 1 µM.

With `NCCNc1ccc(NCCN)c2c1C(=O)c1ccncc1C2=O` [Pixantrone], the drug sensitivity score in assay [1] amounted to 0. The “absolute EC50 for viability” value in assay [2] is above 10 µM.

On to `CN(C)C(=O)c1ccc(S(=O)(=O)c2ccc(NC(=O)C(C)(O)C(F)(F)F)c(Cl)c2)cc1` (stereo not drawn) [AZD7545], for which the drug sensitivity score in assay [1] was 0. For the same molecule, the “absolute EC50 for viability” value in assay [2] was above 10 µM.

In the case of `CC1(C)CCC(c2ccc(Cl)cc2)=C(CN2CCN(c3ccc(C(=O)NS(=O)(=O)c4ccc(N[C@H](CCN5CCOCC5)CSc5ccccc5)c(S(=O)(=O)C(F)(F)F)c4)cc3)CC2)C1` [Navitoclax], the drug sensitivity score in assay [1] stood at 0. Besides, in assay [2], the “absolute EC50 for viability” value is above 10 µM.

For the molecule `O=C(NC1CCNCC1)c1n[nH]cc1NC(=O)c1c(Cl)cccc1Cl` [AT7519], in assay [1], the drug sensitivity score worked out at 12.2. In addition, the “absolute EC50 for viability” value in assay [2] worked out at 0.462 µM.

Take `CS(=O)(=O)CCNCc1ccc(-c2ccc3ncnc(Nc4ccc(OCc5cccc(F)c5)c(Cl)c4)c3c2)o1` [Lapatinib]: the drug sensitivity score in assay [1] worked out at 0.1. Besides, the “absolute EC50 for viability” value in assay [2] was above 1 µM.

In the case of `Cc1cc2c(F)c(Oc3ncnn4cc(OC[C@@H](C)O)c(C)c34)ccc2[nH]1` [Brivanib], the drug sensitivity score in assay [1] came to 0. Also, in assay [2], the “absolute EC50 for viability” value is above 1 µM.

As to `CC(C)Oc1ccc(-c2nn([C@@H](C)c3oc4ccc(F)cc4c(=O)c3-c3cccc(F)c3)c3ncnc(N)c23)cc1F` [TGR-1202], in assay [1], the drug sensitivity score turned out to be 0. The “absolute EC50 for viability” value in assay [2] was above 2.5 µM.

`O=C(NCc1ccncc1)C12CC3CC(C1)CC(c1ccc(Cl)cc1)(C3)C2` displayed a drug sensitivity score in assay [1] of 3.3. Also, the “absolute EC50 for viability” value in assay [2] was above 50 µM.

`C[C@H]1O[C@@H](O[C@H]2[C@@H](O)C[C@H](O[C@H]3[C@@H](O)C[C@H](O[C@H]4CC[C@@]5(C)[C@H](CC[C@@H]6[C@@H]5C[C@@H](O)[C@]5(C)[C@@H](C7=CC(=O)OC7)CC[C@]65O)C4)O[C@@H]3C)O[C@@H]2C)C[C@H](O)[C@@H]1O` [Digoxin] returned a drug sensitivity score in assay [1] of 13.7. Also, in assay [2], the “absolute EC50 for viability” value came to 0.0529 µM.

`C=CCN(/C=C1/C(=O)O[C@H](COC)[C@@]2(C)C1=C(O)C(=O)C1=C2[C@H](OC(C)=O)C[C@]2(C)C(=O)CC[C@@H]12)CC=C` [Sonolisib] registered a drug sensitivity score in assay [1] of 0. The “absolute EC50 for viability” value in assay [2] was above 10 µM.

In assay [1], `CN[C@@H](C)C(=O)N[C@H]1CN(C(=O)CC(C)C)CC[C@H]2CC[C@@H](C(=O)NC(c3ccccc3)c3ccccc3)N2C1=O` [AT-406] registered a drug sensitivity score of 0. In assay [2], the “absolute EC50 for viability” value is above 10 µM.
